The source of these data is patent US9090659B2, “RHAMM binding peptides” (London Health Sciences Centre Research Inc., priority 2010, dated 2015).

Ends that are not written are not given here. Peptide text beside a SMILES is read from it.

In the first assay the target is T1, RHAMM (Mus musculus, UniProt Q00547).
T1 construct: Profinity eXact tag; made in house; host or cells: E. coli BL21 (D3), plasmid pPAL7-RHAMM
T1 sequence (Q00547 706-766): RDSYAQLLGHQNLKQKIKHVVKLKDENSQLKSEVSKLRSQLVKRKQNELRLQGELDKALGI
Nature of the assay: SPR binding assay for kinetic constants, RHAMM flowed over immobilized peptides (GWC SPRimager II). To be noted: peptide immobilized on sensor plate; RHAMM 500, 750, 1000 nM; 1:1 Langmuir binding model. The procedure:
After peptide screening, […] system was used to determine binding kinetic constants. Thiol-containing peptides at 1 nM concentration in milliQ water were immobilized on a maleimide-functionalized gold-plated chip for 3 hours. Excess peptides were removed by washing with milliQ water. For binding studies, a series of concentrations (500 nM, 750 nM, and 1000 nM) of RHAMM were injected over the immobilized peptides. After a 15 min dissociation phase, the sensor chip surface was regenerated for the next peptide sample injection, via treatment with two 10 min pulse injections of regenerating buffer (2 M NaCl in HBS-EP, pH 7.4) at […]. Baseline returned to the initial value after the regeneration step, confirming the removal of all bound analytes. Data were analyzed and the corresponding dissociation constants (KD) were obtained via non-linear regression fitting to a Langmuir binding model. In all experiments, reference subtraction was performed using data obtained from reference plate (no peptide) and peptide functionalized plate. The binding of the six peptides deduced in the previous section to RHAMM was quantified. Truncation studies indicate that the CTTs (i.e. the last 12 carboxy-terminal residues of S-peptides), were sufficient to induce MAP-directed microtubule assembly, thus placing a label spaced by a linker moiety on the amino terminus of CTT should not affect the peptide-protein interaction. Peptides were immobilized on the sensor plate and RHAMM was flowed over derivatized surface at different concentrations at a constant flow rate of 100 μL/min. FIG. 4 A depicts the resulting sensograms. Again, each sensograms has been corrected by subtracting each curve from a reference sensorgram (data acquired from the sensorgram without immobilized peptide) in order to account for refractive index differences between running buffer and sample solutions. Experimental sensograms were fitted with curves resulting from a kinetic model for a 1:1 Langmuir binding model. […]
Background: In SPR one partner is held on a chip, and binding of the other changes the refractive index at the surface.
As a reminder, the Kd is the free concentration of one partner at which half of the binding sites on the other are occupied at equilibrium, for simple one-to-one binding. For the compound `CC(C)[C@H](N)C(=O)N[C@@H](CCC(=O)O)C(=O)NCC(=O)N[C@@H](CCC(=O)O)C(=O)NCC(=O)N[C@@H](CCC(=O)O)C(=O)N[C@@H](CCC(=O)O)C(=O)N[C@@H](CCC(=O)O)C(=O)NCC(=O)N[C@@H](CCC(=O)O)C(=O)N[C@@H](CCC(=O)O)C(=O)N[C@@H](Cc1ccc(O)cc1)C(N)=O` [SEQ ID NO: 1] (H-VEGEGEEEGEEY-NH2), binding was put at a Kd of 0.024 µM.

On to `C[C@H](NC(=O)[C@H](CCC(=O)O)NC(=O)[C@H](CCC(=O)O)NC(=O)[C@H](CCC(=O)O)NC(=O)[C@H](C)NC(=O)[C@H](CCC(=O)O)NC(=O)[C@H](CCC(=O)O)NC(=O)CNC(=O)[C@H](Cc1ccccc1)NC(=O)[C@H](CC(=O)O)NC(=O)[C@H](CCC(=O)O)NC(=O)[C@@H](N)CCC(=O)O)C(N)=O` [SEQ ID NO: 9] (H-EEDFGEEAEEEA-NH2), for which the dissociation constant (Kd) was determined as 0.032 µM.

`CSCC[C@H](NC(=O)[C@H](CC(N)=O)NC(=O)[C@H](CO)NC(=O)[C@H](CCC(=O)O)NC(=O)[C@H](C)NC(=O)[C@H](CCC(=O)O)NC(=O)[C@@H](NC(=O)[C@@H](N)Cc1ccccc1)[C@@H](C)O)C(=O)N[C@@H](CC(N)=O)C(=O)N[C@@H](CC(=O)O)C(=O)N[C@@H](CC(C)C)C(=O)N[C@H](C(N)=O)C(C)C` [SEQ ID NO: 14] (H-FTEAESNMNDLV-NH2) registered a Kd of 0.03 µM.

The next assay has as its target T2, RHAMM (Mus musculus, UniProt Q00547).
T2 construct: Profinity eXact tag; made in house; host or cells: E. coli BL21 (D3), plasmid pPAL7-RHAMM
Nature of the assay: KD (nM).
Details: not given
From the text:
Table printed on a drawing sheet, FIG. 2 B
Head of the field: KD (nM)
The patent's description of the figure: FIG. 2 A illustrate the general structure of (a) unmodified tubulin-derived peptides, (b) tubulin-derived peptides conjugated to N-acetyl cysteine, and (c) tubulin-derived peptides conjugated to fluorescein isothiocyanate.
FIG. 2 B is a table of 17 synthesized tubulin-derived peptides, including peptides derivatized with fluorescein or N-acetyl cysteine, tubulin fragment type, calculated and observed mass spectrometry m/z values (m is representative of molecular or atomic mass and z is representative of the number of elementary charges carried by the ion), percent purity and binding constant Kd. FIG. 2 B discloses SEQ ID NOs: 1, 24-25, 2-3, 26-27, 4-9, 28-29, 10-11, 30-31, 12, 32-33, 13-14, 34-35 and 15-17, respectively, in order of appearance.
FIG. 2 B is a table which describes all 17 peptides prepared for this study. Sequences of 17 synthesized peptides encompass the CTTs of different tubulin subtypes as well as sequences directly flanking α1a- (SEQ ID NOs: 6, 7 and 8) and βIIIa-CTT (SEQ ID NOs: 13 and 14). […]
First copying reader's note: The table is continued on the next sheet (printed: continued on page 4/20).
Where the first naming reader finds the target: patent_title: RHAMM binding peptides
Turning to `C[C@H](NC(=O)[C@H](CO)NC(=O)[C@@H](N)CC(=O)O)C(=O)N[C@@H](CC(=O)O)C(=O)NCC(=O)N[C@@H](CCC(=O)O)C(=O)N[C@@H](CC(=O)O)C(=O)N[C@@H](CCC(=O)O)C(=O)NCC(=O)N[C@@H](CCC(=O)O)C(=O)N[C@@H](CCC(=O)O)C(=O)N[C@@H](Cc1ccc(O)cc1)C(N)=O` [SEQ ID NO. 2 | 2, Alpha Ia CTT (438-449)] (H-DSADGEDEGEEY-NH2; N-terminus assumed), the Kd was < 1 µM.

In turn, `CC(C)[C@H](NC(=O)[C@@H](N)CO)C(=O)N[C@@H](CCC(=O)O)C(=O)N[C@@H](C)C(=O)N[C@@H](CCC(=O)O)C(=O)N[C@@H](C)C(=O)N[C@@H](CCC(=O)O)C(=O)N[C@@H](CCC(=O)O)C(=O)NCC(=O)N[C@@H](CCC(=O)O)C(=O)N[C@@H](CCC(=O)O)C(=O)N[C@@H](Cc1ccc(O)cc1)C(N)=O` [SEQ ID NO. 3 | 3a, Alpha IIIc CTT (439-450)] (H-SVEAEAEEGEEY-NH2; N-terminus assumed) had a Kd of 0.331 µM.

The next assay deals with T1, RHAMM. The experiment in a line: SPR-based screening of tubulin-derived peptides against immobilized RHAMM (ProteON XPR36). It counts as binding. The conditions noted are these: peptides 10 μM injected over immobilized RHAMM. On the procedure:
ProteON XPR36 system was used for the selection and ranking of different tubulin derived peptides against RHAMM. For immobilization of RHAMM, the ProteON GLC sensor chip surfaces were activated by amine coupling using 100 mM EDAC and 24 mM sulfo-NHS. RHAMM (30 μg/mL in sodium bicarbonate buffer, pH 9.7) was injected at a flow a rate of 30 μl/min. A buffer sample was injected on a different sensor plate for use as a reference. Ethanolamine HCl (1M, pH 8.5) was then injected to deactivate any remaining surface groups. Peptides (10 μM in PBS-T, 2% DMSO) were injected to a RHAMM functionalized surface at 50 μL/min for 3 minutes followed by a 10 minute dissociation (i.e. injection of PBS-T buffer) period. The surfaces were regenerated using two injections of 30 μL of 1M NaCl prior to the injection of the next peptide. In all experiments, reference subtraction was performed using data obtained from reference plate (No RHAMM) and RHAMM functionalized plate.
A SPR (surface plasmon resonance)-based screening method was utilized for rapid and accurate determination of potential peptide candidates that are able to recognize the HA-binding domain of RHAMM. Seventeen tubulin-derived peptides were screened, and the resulting sensograms were used to deduce peptides which show affinity to RHAMM. Prior to screening, the optimal condition for ligand immobilization, in this instance RHAMM, to the sensor plate was determined. The optimal pH for the immobilization buffer balances the electrostatic attraction of the protein to the sensor plate while minimizing protein deactivation. In this study the optimal pH for immobilization was determined to be the pH that yielded the highest ligand density. RHAMM was coupled to the sensor plate using sodium bicarbonate buffer of varying pH, at a flow rate of 30 μL/min and with fixed concentration of EDAC and sulfo-NHS. The RHAMM ligand density for each pH immobilization condition was determined from the average SPR response of six measurements and the maximum ligand immobilization occurred at pH 9.7 (FIG. 3 A). Ligand immobilization was slightly lower than pH 10.1 due in part to loss of net charge on RHAMM at its isoelectric point.
After immobilization of RHAMM on the SPR sensor chip, injection of a series of tubulin derived peptides was carried out. Association of the peptides with RHAMM proceeded for 3 minutes and the dissociation in analyte free buffer was carried out for 10 minutes. […] For each peptide injection, control sensograms (no immobilized RHAMM and buffer injection) were subtracted from the test sensograms, and the chip surface was regenerated prior to the next peptide injection in order to remove any remaining bound peptides.
In the case of “SEQ ID NO: 2: synthesized tubulin-derived 12-residue peptide containing DEXEEZ motif (DSADGEDEGEEY)”, the “affinity to RHAMM in SPR screening” value is recorded as “failed the initial screening”.

“SEQ ID NO: 3: synthetic αIIIc tubulin CTT peptide containing EEXEEZ motif (SVEAEAEEGEEY)”: the “affinity to RHAMM in SPR screening” value is “enhanced affinity to RHAMM”.

Regarding “SEQ ID NO: 4: synthesized tubulin-derived 12-residue peptide containing DEXEEZ motif (IDSYEDEDEGEE)”, the “affinity to RHAMM in SPR screening” value is “failed the initial screening”.

Consider “SEQ ID NO: 10: synthesized tubulin-derived 12-residue peptide containing EEXEDZ motif (GEFEEEEGEDEA)”, for which the “affinity to RHAMM in SPR screening” value is recorded as “failed the initial screening”.

Consider “SEQ ID NO: 11: synthetic βIV-CTT tubulin peptide containing EEXEEZ motif (GEFEEEAEEEVA-NH2)”, for which the “affinity to RHAMM in SPR screening” value was “enhanced affinity to RHAMM”.

With “SEQ ID NO: 12: synthesized tubulin-derived 12-residue peptide of FIG. 2B (EAFEDEEEEIDG)”, the “affinity to RHAMM in SPR screening” value was “enhanced affinity to RHAMM”.

The subject of a further assay is ascites-derived human EOC cells. Nature of the assay: Cell viability (alamarBlue) of ascites-derived human EOC cells. It counts as cell-based. The conditions noted are these: 7 and 0.7 uM, re-dosing everyday up to 6 days; p<0.05. The procedure: The ability of one RHAMM-binding peptide (SEQ ID NO: 1) to limit the proliferation of patient derived epithelial ovarian cancer tumors and the ability of another RHAMM-binding peptide (SEQ ID NO: 3) to reduce the viability of ascites-derived human EOC cells were examined. In these assays, epithelial ovarian cancer cells (derived from ascites of patients) were plated in a 96-well plate at density 5,000 cells/well and allowed to grow for 24 hours at 37° C. and 5% CO2. Peptides (1 uM and 10 uM) were added to cells on day one and proliferation was measured for 6 days. 1/10th volume of Alamar Blue reagent was added directly to cells in culture medium everyday for six days. Fluorescence was read at 570/590 nm. Data were obtained from mean of two experiments. Cells treated with just DMSO (dimethylsulfoxide) and “no-cell” control samples were included in the experiment.
Primary cells from patient sample EOC were seeded to a 24-well culture dish and 24 hours later treatment was initiated with the RHAMM-binding peptide SEQ ID NO: 3 (7 and 0.7 uM concentrations) or DMSO vehicle control. Re-dosing occurred everyday for up to 6 days and cell viability was assessed by fluorometry using alamarBlue™ reagent (measured in fluorescence units, FU).
(The colour change of resazurin is a common sign of viable cells or microbes.)
Regarding “SEQ ID NO: 3: synthetic αIIIc tubulin CTT peptide containing EEXEEZ motif (SVEAEAEEGEEY)”, the “viability of EOC cells (fluorescence units)” value is “reduced viability”.
